Measured values: the supplement of paper PMC10307832

Assays:
Assay in all cases: relative viability (nuclei count vs DMSO), 5 days (fraction); higher = more cells survive
[1] = compound: C1CNCCC1C2=CC(=NN2)C3=CC=NC=C3 + Cc1cc(Nc2cc(N3CCN(C)CC3)nc(Sc3ccc(NC(=O)C4CC4)cc3)n2)n[nH]1 [Tozasertib] (partner 0.1 µM)
Outline: (§1)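 A single step with final 0.05% Triton X-100, 1% formaldehyde and 1 ug/ml Hoechst fixed the cells and stained nuclei 5 days after treatment. Lung cancer cell lines in 1536-well plates had been treated by pin tool the day after seeding with one drug alone or a fixed anchor-drug dose plus five library-drug doses (not always all listed) in √10 steps, and nuclei were counted on 4× images. Relative viability is the ratio of nuclei in treated wells to nuclei in vehicle wells, taken as the median of duplicate plates.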

[2] = compound: C[C@@H](N)c1ccc(C(=O)Nc2ccnc3[nH]ccc23)cc1 + CCNC(=O)c1noc(-c2cc(C(C)C)c(O)cc2O)c1-c1ccc(CN2CCOCC2)cc1 [Luminespib] (partner 0.01 µM)
Outline: as §1

[3] = compound: C[C@@H](N)c1ccc(C(=O)Nc2ccnc3[nH]ccc23)cc1 + Cc1cc(Nc2cc(N3CCN(C)CC3)nc(Sc3ccc(NC(=O)C4CC4)cc3)n2)n[nH]1 [Tozasertib] (partner 0.1 µM)
Outline: as §1

Tanzisertib + AZD7762 = compound: O[C@H]1CC[C@H](Nc2ncc3nc(Nc4c(F)cc(F)cc4F)n([C@H]4CCOC4)c3n2)CC1 [Tanzisertib] + NC(=O)Nc1cc(-c2cccc(F)c2)sc1C(=O)N[C@H]1CCCNC1 [AZD7762] (partner 0.2 µM)
Outline: as §1

Row | Cell Line | relative viability ([1]; first compound 0.08 µM) | relative viability ([1]; first compound 0.8 µM) | relative viability ([1]; first compound 2.53 µM) | relative viability ([1]; first compound 8 µM) | relative viability ([2]; first compound 0.04 µM) | relative viability ([2]; first compound 0.1265 µM) | relative viability ([2]; first compound 0.4 µM) | relative viability ([2]; first compound 1.265 µM) | relative viability ([2]; first compound 4 µM) | relative viability ([3]; first compound 0.04 µM) | relative viability ([3]; first compound 0.1265 µM) | relative viability ([3]; first compound 0.4 µM) | relative viability ([3]; first compound 1.265 µM) | relative viability ([3]; first compound 4 µM) | relative viability (Tanzisertib + AZD7762; first compound 0.08 µM) | relative viability (Tanzisertib + AZD7762; first compound 0.253 µM) | relative viability (Tanzisertib + AZD7762; first compound 0.8 µM) | relative viability (Tanzisertib + AZD7762; first compound 2.53 µM) | relative viability (Tanzisertib + AZD7762; first compound 8 µM)
1 | CAL-12T | 0.334 | 0.34 | 0.313 | 0.342 | 0.297 | 0.421 | 0.322 | 0.432 | 0.22 | 0.366 | 0.392 | 0.413 | 0.443 | 0.283 | 0.606 | 0.79 | 0.623 | 0.636 | 0.647
2 | NCI-H838 | 0.314 | 0.292 | 0.28 | 0.284 | 0.355 | 0.315 | 0.32 | 0.282 | 0.222 | 0.268 | 0.281 | 0.224 | 0.219 | 0.189 | 0.964 | 0.962 | 0.889 | 0.909 | 0.972
3 | RERF-LC-KJ | 0.525 | 0.51 | 0.591 | 0.426 | 1.22 | 1.3 | 1.26 | 1.2 | 1.25 | 0.643 | 0.453 | 0.525 | 0.513 | 0.422 | 0.987 | 1.02 | 0.904 | 0.93 | 0.571
4 | HCC-44 | 0.873 | 1.32 | 1.1 | 0.897 | 0.922 | 1.11 | 1.31 | 1.21 | 0.486 | 0.793 | 0.809 | 1.15 | 1.2 | 0.789 | 0.987 | 1.05 | 0.997 | 1.01 | 1.15
5 | A-427 | 0.203 | 0.214 | 0.19 | 0.22 | 0.79 | 0.898 | 0.976 |  | 0.804 | 0.26 | 0.185 | 0.237 |  | 0.22 | 0.756 | 0.766 | 0.885 | 0.705 | 0.662
6 | SW 900 | 0.648 | 0.623 | 0.514 | 0.681 | 0.185 | 0.214 | 0.152 | 0.172 | 0.152 | 0.551 | 0.561 | 0.551 | 0.663 | 0.714 |  | 0.646 | 0.603 | 0.727 | 0.423
7 | NCI-H322M | 0.461 | 0.462 | 0.523 | 0.503 | 1.08 | 1.1 | 1.03 |  | 0.742 | 0.491 | 0.521 | 0.494 |  | 0.464 | 0.567 | 0.547 | 0.547 | 0.527 | 0.492
